*1 amine or outer side, *2 acyl side, *3 side chain or, on linkers, in order; H or OH if unused. Where a SMILES comes first, the peptide text is derived from it. Bridges are numbered along the chain shown (N, C = ends). [ ]: non-standard residue; d: D form. The star is where a group is joined. ξ: configuration not given here. ξOrn(4,5-diOH) = O=C(C(CC(O)C(O)N[*:3])N[*:1])[*:2]; ξhTyr(βξ-OH,γξ-OH) = NC(C(=O)O)C(O)C(O)c1ccc(O)cc1; ξPro(3ξ-OH,4ξ-Me) = CC1CNC(C(=O)O)C1O; X2 = O=C(C=Cc1ccc(N[*:1])cc1)[*:2]; Palmitoyl = CCCCCCCCCCCCCCCC(=O)*; X6 = O=C(Cc1ccc(N[*:1])cc1)[*:2]; X3 = CCCCCCCCOc1ccc(CC(=O)*)cc1; X5 = CCCCCCCOc1ccc(CCC(=O)*)cc1; X1 = CCCCCC=CCC=CCCCCCCCC(=O)*; X4 = CCCCCOc1ccc(CCC(=O)*)cc1; Hyp = O=C(O)[CH]1C[CH](O)CN1; Lauroyl = CCCCCCCCCCCC(=O)*; 4Abz = Nc1ccc(C(=O)O)cc1
Molecular target: T1, ECB deacylase (Actinoplanes utahensis, UniProt P29958)
T1 construct: ECB deacylase is an 81-kilodalton (KD) heterodimer comprising 63-KD and 18 KD subunits; made in house; host or cells: Actinoplanes utahensis (native producer, not recombinant); enzyme solubilized from whole cells with salt and purified
T1 sequence (P29958 230-786 limits assumed): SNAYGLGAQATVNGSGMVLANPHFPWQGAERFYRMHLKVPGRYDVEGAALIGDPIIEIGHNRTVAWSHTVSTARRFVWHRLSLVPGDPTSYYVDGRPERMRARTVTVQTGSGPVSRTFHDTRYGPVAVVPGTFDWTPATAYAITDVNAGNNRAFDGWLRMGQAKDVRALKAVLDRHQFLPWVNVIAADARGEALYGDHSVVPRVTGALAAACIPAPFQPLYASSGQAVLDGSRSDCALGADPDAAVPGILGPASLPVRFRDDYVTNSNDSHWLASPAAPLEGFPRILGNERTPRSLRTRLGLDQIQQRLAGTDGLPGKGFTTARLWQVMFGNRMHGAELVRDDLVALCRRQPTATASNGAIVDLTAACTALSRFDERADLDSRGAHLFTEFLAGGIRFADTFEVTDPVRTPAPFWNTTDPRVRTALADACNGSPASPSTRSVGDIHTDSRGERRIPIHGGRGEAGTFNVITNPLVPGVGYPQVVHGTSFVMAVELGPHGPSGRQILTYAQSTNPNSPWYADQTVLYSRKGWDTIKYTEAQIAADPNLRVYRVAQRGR
T1 sequence (P29958 35-214 limits assumed): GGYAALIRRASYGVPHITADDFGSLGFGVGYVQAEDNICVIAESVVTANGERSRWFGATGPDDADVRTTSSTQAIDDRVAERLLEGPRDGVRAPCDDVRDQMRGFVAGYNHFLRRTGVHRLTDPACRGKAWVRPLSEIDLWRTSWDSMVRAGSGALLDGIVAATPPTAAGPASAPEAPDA
Experiment: ECB deacylase assay (formation of ECB nucleus by HPLC)
Format: biochemical
Conditions: for percent activity relative to the deacylase activity of 100% for ECB itself: substrate specificity
Experimental: The assay employed herein for determining and measuring deacylase activity utilizes echinocandin B as substrate. A typical reaction mixture of 1 ml for ECB deacylase assay contained […] of ECB and 0.000003 to 0.003 unit of the enzyme in 0.05M KH2 PO4, pH 6.0, in the presence of 0.68M KCl and 15% DMSO to effect solution of the ECB. The enzymatic reaction was initiated by addition of the enzyme and was continued for 20 min at 60° C. before being interrupted by the addition of phosphoric acid. After a low-speed centrifugation to remove precipitated protein, the deacylase activity was determined by monitoring the formation of ECB nucleus at 225 nm using HPLC.
HPLC components were IBM PS/2 Model 80 and Color Display (IBM, Armonk, N.Y.), a Water 715 Ultra WISP Sample Processor (Waters Associates, Milford, Mass.), and a Beckman System Gold Programmable Solvent Module 126 and Scanning Detector Module 167 (Beckman, Fullerton, Calif.).
The ECB nucleus was eluted from an Apex Octadecyl 3 μ column (4.6×10 cm) (Jones Chromatography, Littleton, Co.) with a mobile phase of 3.9% CH3 CN/0.1% trifluoroacetic acid and a flow rate of 1 ml/min. The nucleus formation was linear with time during the assays. […] As used herein one unit of enzyme activity is defined as the amount of the deacylase required to cause formation of one μmole of the ECB nucleus per minute from ECB under the above described reaction conditions.

Row | Molecule | percent activity relative to the deacylase activity of 100% for ECB itself (purified deacylase) | substrate of the purified deacylase (in words) (purified deacylase) | also measured
1 | CCCCCOc1ccc(CCC(=O)NC2CC(O)C(O)NC(=O)C3C(O)C(C)CN3C(=O)C(C(C)O)NC(=O)C(C(O)C(O)c3ccc(O)cc3)NC(=O)C3CC(O)CN3C(=O)C(C(C)O)NC2=O)cc1 (stereo not drawn) (X4-[ξOrn(4,5-diOH)]T[Hyp][ξhTyr(βξ-OH,γξ-OH)]T[ξPro(3ξ-OH,4ξ-Me)]; lactam 1-C; configuration not given here) | 12% | – | –
2 | CCCCCCCCCCCC(=O)Nc1ccc(C(=O)NC2CC(O)C(O)NC(=O)C3C(O)C(C)CN3C(=O)C(C(C)O)NC(=O)C(C(O)C(O)c3ccc(O)cc3)NC(=O)C3CC(O)CN3C(=O)C(C(C)O)NC2=O)cc1 (stereo not drawn) ({Lauroyl-4Abz}-[ξOrn(4,5-diOH)]T[Hyp][ξhTyr(βξ-OH,γξ-OH)]T[ξPro(3ξ-OH,4ξ-Me)]; lactam 1-C; configuration not given here) | – | substrates | –
3 | CCN1C(=O)C=CC1=O [N-ethylmaleimide (NEM), N-ethylmaleimide] | – | – | enhancement of the rate of conversion of ECB to ECB nucleus (purified deacylase): 6-7 fold
4 | CCCCCCCCCCCC(=O)Nc1ccc(CC(=O)NC2CC(O)C(O)NC(=O)C3C(O)C(C)CN3C(=O)C(C(C)O)NC(=O)C(C(O)C(O)c3ccc(O)cc3)NC(=O)C3CC(O)CN3C(=O)C(C(C)O)NC2=O)cc1 (stereo not drawn) (Lauroyl-[X6][ξOrn(4,5-diOH)]T[Hyp][ξhTyr(βξ-OH,γξ-OH)]T[ξPro(3ξ-OH,4ξ-Me)]; lactam 2-C; configuration not given here) | 5% | – | –
5 | CCCCCCCOc1ccc(CCC(=O)NC2CC(O)C(O)NC(=O)C3C(O)C(C)CN3C(=O)C(C(C)O)NC(=O)C(C(O)C(O)c3ccc(O)cc3)NC(=O)C3CC(O)CN3C(=O)C(C(C)O)NC2=O)cc1 (stereo not drawn) (X5-[ξOrn(4,5-diOH)]T[Hyp][ξhTyr(βξ-OH,γξ-OH)]T[ξPro(3ξ-OH,4ξ-Me)]; lactam 1-C; configuration not given here) | 30% | – | –
6 | CCCCCCCCCCCCCCCC(=O)NC1CC(O)C(O)NC(=O)C2C(O)C(C)CN2C(=O)C(C(C)O)NC(=O)C(C(O)C(O)c2ccc(O)cc2)NC(=O)C2CC(O)CN2C(=O)C(C(C)O)NC1=O (stereo not drawn) [aculeacin] (Palmitoyl-[ξOrn(4,5-diOH)]T[Hyp][ξhTyr(βξ-OH,γξ-OH)]T[ξPro(3ξ-OH,4ξ-Me)]; lactam 1-C; configuration not given here) | – | deacylates | –
7 | Daptomycin | – | cleaves the fatty acid side chain | –
8 | CCCCCCCCCCCC(=O)Nc1ccc(C=CC(=O)NC2CC(O)C(O)NC(=O)C3C(O)C(C)CN3C(=O)C(C(C)O)NC(=O)C(C(O)C(O)c3ccc(O)cc3)NC(=O)C3CC(O)CN3C(=O)C(C(C)O)NC2=O)cc1 (stereo not drawn) (Lauroyl-[X2][ξOrn(4,5-diOH)]T[Hyp][ξhTyr(βξ-OH,γξ-OH)]T[ξPro(3ξ-OH,4ξ-Me)]; lactam 2-C; configuration not given here) | 15% | – | –
9 | CCCCCCCCOc1ccc(CC(=O)NC2CC(O)C(O)NC(=O)C3C(O)C(C)CN3C(=O)C(C(C)O)NC(=O)C(C(O)C(O)c3ccc(O)cc3)NC(=O)C3CC(O)CN3C(=O)C(C(C)O)NC2=O)cc1 (stereo not drawn) (X3-[ξOrn(4,5-diOH)]T[Hyp][ξhTyr(βξ-OH,γξ-OH)]T[ξPro(3ξ-OH,4ξ-Me)]; lactam 1-C; configuration not given here) | 30% | – | –
10 | CCCCCC=CCC=CCCCCCCCC(=O)NC1CC(O)C(O)NC(=O)C2C(O)C(C)CN2C(=O)C(C(C)O)NC(=O)C(C(O)C(O)c2ccc(O)cc2)NC(=O)C2CC(O)CN2C(=O)C(C(C)O)NC1=O (stereo not drawn) [echinocandin B] (X1-[ξOrn(4,5-diOH)]T[Hyp][ξhTyr(βξ-OH,γξ-OH)]T[ξPro(3ξ-OH,4ξ-Me)]; lactam 1-C; configuration not given here) | 100% | deacylates | ratio of ECB nucleus formed to ECB disappearance (reaction stoichiometry): about 52.4%; Vmax for the ECB reaction (purified enzyme): 10 to 11 µmol/min/mg

From patent publication US5573936A, “Process for purifying echinocandin B deacylase” (Eli Lilly and Company, priority 1995, dated 1996)
